# Data: PMC8785688 (Bioorganic & medicinal chemistry, 2021)
# B1: loop mutant (LM) of human epithelial 15-lipoxygenase-2, Mn2+-substituted (enzyme, UniProt O15296 1-676, looked up)
# chain: MAEFRVRVSTGEAFGAGTWDKVSVSIVGTRGESPPLPLDNLGKEFTAGAEEDFQVTLPEDVGRVLLLRVHKAGPLAPDAWFCRWFQLTPPRGGHLLFPCYQWLEGAGTLVLQEGTAKVSWADHHPVLQQQRQEELQARQEMYQWKAYNPGWPHCLDEKTVEDLELNIKYSTAKNANFYLQAGSAFAEMKIKGLLDRKGLWRSLNEMKRIFNFRRTPAAEHAFEHWQEDAFFASQFLNGLNPVLIRRCHYLPKNFPVTDAMVASVLGPGTSLQAELEKGSLFLVDHGILSGIQTNVINGKPQFSAAPMTLLYQSPGCGPLLPLAIQLSQTPGPNSPIFLPTDDKWDWLLAKTWVRNAEFSFHEALTHLLHSHLLPEVFTLATLRQLPHCHPLFKLLIPHTRYTLHINTLARELLIVPGQVVDRSTGIGIEGFSELIQRNMKQLNYSLLCLPEDIRTRGVEDIPGYYYRDDGMQIWGAVERFVSEIIGIYYPSDESVQDDRELQAWVREIFSKGFLNQESSGIPSSLETREALVQYVTMVIFTCSAKHAAVSAGQFDSCAWMPNLPPSMQLPPPTSKGLATCEGFIATLPPVNATCDVILALWLLSKEPGDQRPLGTYPDEHFTEEAPRRSIATFQSRLAQISRGIQERNQGLVLPYTYLDPPLIENSVSI
# Assays:
# [1] = target: T1, h15-LOX-2 (Homo sapiens, UniProt O15296); assay: Lipoxygenase UV-Vis-based IC50 assay, h15-LOX-2; format: biochemical
# T1 sequence (O15296 1-676): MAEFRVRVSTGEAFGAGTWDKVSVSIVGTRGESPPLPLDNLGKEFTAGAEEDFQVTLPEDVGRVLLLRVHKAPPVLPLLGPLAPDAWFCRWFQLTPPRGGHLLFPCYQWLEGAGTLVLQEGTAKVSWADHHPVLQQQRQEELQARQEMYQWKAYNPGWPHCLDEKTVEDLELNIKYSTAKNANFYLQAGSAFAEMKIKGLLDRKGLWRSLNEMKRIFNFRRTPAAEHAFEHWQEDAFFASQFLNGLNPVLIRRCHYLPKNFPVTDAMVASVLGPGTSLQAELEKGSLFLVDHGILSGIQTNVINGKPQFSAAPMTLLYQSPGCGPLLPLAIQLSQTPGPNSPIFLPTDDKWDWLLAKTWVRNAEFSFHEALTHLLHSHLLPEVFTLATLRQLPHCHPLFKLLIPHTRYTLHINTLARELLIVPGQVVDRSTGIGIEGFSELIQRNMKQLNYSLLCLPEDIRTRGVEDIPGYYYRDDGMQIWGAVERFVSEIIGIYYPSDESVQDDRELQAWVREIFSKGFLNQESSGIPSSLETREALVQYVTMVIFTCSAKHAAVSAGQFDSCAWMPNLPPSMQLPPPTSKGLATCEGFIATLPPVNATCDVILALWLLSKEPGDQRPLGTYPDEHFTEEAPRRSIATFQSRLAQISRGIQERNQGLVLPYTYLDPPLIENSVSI
# [2] = target: T1, h15-LOX-2; assay: Steady-state inhibition kinetics of h15-LOX-2; format: biochemical; details: for mode of inhibition: against h15-LOX-2
# [3] = target: T1, h15-LOX-2; assay: Study of inhibitors as substrates of h15-LOX-2; format: biochemical; details: 20 μM inhibitor, absence of AA; UV-Vis and RP-HPLC
# [4] = target: T1, h15-LOX-2; assay: Hydrogen/deuterium exchange mass spectrometry of h15-LOX-2; details: 20 μM inhibitor; peptides 173-184 and 184-191 (helix α2); short time scales (< 10 min)
# [5] = target: the molecule itself; assay: SEC
molecule,measurement,setting,value
FC(F)(F)c1ccc(CSc2nccn2-c2ccccc2)cc1 [Inhibitor 327069],enhanced inhibition of 327069 over 536924,[1]; ratio of IC50 values,~10 fold
same,Ki,[2],1200 nM
same,mode of inhibition,[2],mixed-type
same,substrate activity with h15-LOX-2,[3],not substrates
same,change in H/D exchange vs h15-LOX-2 alone,[4],≤ 20%
CCc1ccc(CSc2nccn2-c2ccccc2)cc1 [Inhibitor 327206],mode of inhibition,[2],mixed-type
same,substrate activity with h15-LOX-2,[3],not substrates
"Fc1ccc(CSc2nccn2-c2ccccc2)cc1 [analog 2, 2-((4-fluorobenzyl)thio)-1-phenyl-1H-imidazole]",IC50,[1],> 100000 nM
B1,stoichiometry N,[5],2
